Assay results published in patent EP0443560A2, “HIV protease inhibitors” (priority 1990, dated 1991).

What was measured:
HIV protease = molecular target: T1, HIV protease (Human immunodeficiency virus type 1 group M subtype B, UniProt P04585); assay: Recombinant HIV Protease HPLC Assay; format: biochemical
T1 construct: HIV protease was expressed in E. coli [construct pBRT1 prt⁺; made in house; host or cells: E. coli
Excerpt: The procedure is based on the capacity of the test compound to inhibit enzymatic cleavage by HIV protease of a decapeptide (the substrate) having an amino acid sequence which includes a known HIV protease cleavage site of a HIV polyprotein; see H.G. Krausslich et al., Proc. Natl. Acad. Sci. USA, 86, 807 (1989). Details of this assay together with the results obtained for exemplified compounds of formula 1 are described in the examples hereinafter.
Recombinant HIV Protease HPLC Assay:
HIV protease was expressed in E. coli [construct pBRT1 prt⁺, see W.G. Farmerie et al., Science, 236, 305 (1987)], according to the following protocol: Unless stated otherwise, all solutions are aqueous solutions.
E. coli cells containing the pBRT1 prt⁺ plasmid were used to inoculate a seed culture media composed of Luria-Bertani Broth containing 100µg/mL of ampicillin. Flasks were incubated at 37° under agitation for 17 h. Production flasks containing sterile M9 broth, supplemented with 100µg/ml of ampicillin, were inoculated at a level of 1% (v/v) using the seed culture described above. Total volume in each production flask was 500 mL in a 2 L Erlenmeyer flask. Flasks were incubated at 37° under agitation until a cell concentration corresponding to an optical density (λ = […]) of 0.6 was reached (no dilution). This time span was routinely 3-4 h. Flasks were then supplemented with 5mM isopropylthiogalactoside (IPTG, Research Organics, Cleveland, Ohio, USA) and incubation was continued until the cell concentration reached an optical density of 0.2 at 16-fold dilution. Flasks were then supplemented with 1mM phenylmethylsulfonyl fluoride (PMSF) and rapidly chilled to 4°. The bacterial cells were recovered by centrifugation at 4°. The wet pellet was stored at -70°.
All steps below were performed at 4° unless otherwise indicated. Thawed cells were mixed with buffer A [50 mM tris(hydroxymethyl)[…] HCl(Tris-HCl, pH 7.4); 0.6 mM ethylenediaminetetraacetic acid (EDTA); 0.375 M NaCl, 0.2% Nonidet P-40 ® (BDH Chemicals Ltd., Poole, UK); 1mM PMSF], at a ratio of one part cells to nine parts buffer A. Diatomaceous earth (Celite 545 ® , John Manville, Lompoc, CA, USA) was added at a ratio of two parts to one part of wet cell weight. The resulting slurry was homogenized at high speed (ca. 20,000 rpm) on a Waring ® industrial blender for 8 x 15 sec. pulses. Cell debris/Celite ® was collected by centrifugation and the resulting pellet was extracted with 4.5 parts of buffer A to one part wet solids using the homogenization procedure described above. Supernatants from both homogenization steps were combined and soluble protein was precipitated by the addition of solid (NH₄)₂SO₄ to yield a final concentration of 75% saturation. This mixture was agitated for 60 min and the precipitate was recovered by centrifugation. The resulting pellet was suspended in buffer B [50mM Tris-HCl, pH 8; 30 mM NaCl; 1 mM DL-dithiothreitol(DTT); 1 mM EDTA; 1 mM PMSF; 10% glycerol], and dialyzed for 18h against the same buffer.
An aliquot of the dialyzed extract containing 150 mg of the protein was loaded onto a Sephadex A25 ® anion exchange column. (Pharmacia, Uppsala, Sweden) with bed dimensions of 70 cm length and 2.5 cm diameter. The sample was eluted isocratically with buffer B at a linear flow rate of 10 cm/h. Fractions containing HIV protease activity (see below for assay description) were combined, and soluble protein was precipitated by the addition of saturated aqueous (NH₄)₂SO₄ to yield a total (NH₄)₂SO₄ concentration of 85% saturation. Precipitated protein was removed by centrifugation and the resulting pellet was dissolved in buffer C [50 mM 2-(4-morpholino)ethanesulfonic acid (MES), pH 5.5; 150 mM NaCl; 1 mM DTT; 1 mM EDTA; 10% glycerol). This preparation was dialyzed for 18h against buffer C, and then frozen at -70°. All crude extracts were purified by chromatography in aliquots containing 150 mg of protein in the same manner as described above. […]

H9/HTLV-IIIB = assay: Inhibition of syncytia formation in HIV-infected C8166 cells (antiviral screen adapted from plaque assay of Harada et al.); format: cell-based; settings: Human immunodeficiency virus 1, IIIB, 72 h
Excerpt: Typical of such procedures are those described by S. Harada and N. Yamamoto, Jpn. J. Cancer Res. (Gann), 76, 432 (1985), and S. Harada et al., Science, 229, 563 (1985). An assay based on the latter procedures is described in the examples hereinafter.
The following protocol, used for screening antiviral effects of the compounds of formula 1 , is adapted from a plaque assay utilizing HTLV-I transformed cells which was developed by Harada et al., supra. HTLV-I transformed cells are used in these assays because of the rapidity with which HIV will replicate in these cells. • 1. The test compound is dissolved in dimethylsulfoxide to a concentration of 5 mg/mL. The resultant solution can be stored at 4° until used. • 2. The resultant solution is diluted in RPMI 1640 (Gibco Laboratories, St. Lawrence, MA, USA) to four times (4x) the final concentration which is to be tested. Once diluted in RPMI 1640, the solution is used in the cell culture assay within 4 h. • 3. The 4x solution (50µL) is added to triplicate wells of a 96 well flat bottomed microtiter plate. […] Infectious titer of virus stocks are as previously determined by end point dilution on C8166 cells. […] Plates are then removed and centers of syncytia are counted in each well by low power phase contrast light microscopy. […] Percent inhibition of syncytia formation is calculated by the formula: [formula]

| Structure (SMILES) | IC50 (HIV protease) | inhibition at 20 µg/mL (H9/HTLV-IIIB) |
| --- | --- | --- |
| CC(C)(C)OC(=O)NC(CNC(CC1CC1)C(=O)NC(CCC(=O)O)C(=O)NCCCc1ccccc1)Cc1ccccc1 (stereo not drawn) [Example 2, Boc-PheΨ[CH₂NH]Cpa-Glu-NHCH₂CH₂CH₂Ph] | 13 nM | 54% |
| CC(C)(C)OC(=O)NC(CC1CCCCC1)C(O)CC(=O)NC(CCC(=O)O)C(=O)NCCCc1ccccc1 (stereo not shown) [Example 4, Boc-ACHPA-Glu-NHCH₂CH₂CH₂Ph] | 7 nM | 96% |
